Here are results for 3 compounds from US20180042867A1, “METHODS OF TREATING CANCER” (Mitchell Woods Pharmaceuticals, Inc., priority 2015, published 2018).

In assay [1] the test system is PANC-1 cells. The settings on record: cited from earlier work.
The subject of the next assay is MDA-MD-231 cells. Put plainly: Expression of ABC exporters in MDA-MB-231 cells. Format: cell-based, human. The settings on record: incubation with MNF. From the text:
See, FIG. 6A. In MDA-MD-231 cells, MNF reduced the expression of P-gp and BCRP while the signal associated with MRP-1 was too faint to detect in the untreated controls as shown in FIG. 6B. As observed in the expression of cyclin D1, the expression of ABC transporters has been associated with EGFR expression and activity and nuclear translocation of PKM2. Thus, the observed effects are consistent with an MNF-associated reduction in EGFR expression and activity through it effect on glycolysis.

For assay [2], the system named is PANC-1 cells. Put plainly: Untargeted metabolomics (1D 1H NMR) of intracellular metabolome. Type of assay: cell-based, human. Particulars: PANC-1, MNF 1 μM. How it is done: (§1) The cells were seeded on 100×20 mm tissue culture plates and maintained at 37° C. under humidified 5% CO2 in air until they reached >70% confluence. The original media was replaced with media containing 0.5 μM or 1 μM MNF and the plates were incubated for an additional 1 hour, unless otherwise indicated. After completion of incubations, the media was aspirated and the cells were washed twice with 10 ml of phosphate buffer saline (pH 7.4) (PBS). The cells were then collected in 10 ml PBS by scrapping and sedimented by centrifugation (1000 rpm, 5 min), and the supernatant discarded. The cell pellets were stored at −80° C. until analyzed.
The cell pellet was re-suspended in 1 ml of 80% methanol (cryogenically cold) and incubated at −80° C. for 15 minutes. This suspension was then centrifuged at 13,000×g for 10 minutes at 4° C. The supernatant was collected in an eppendorf tube and the pellet was suspended in 0.25 ml of water. The suspension was vortexed mixed for 1 minute and centrifuged at 13,000×g for 10 minutes at 4° C. The supernatant was collected and mixed with the supernatant collected in the previously step and stream dried under nitrogen. The sample was stored at −80° C. until analyzed.
Sample Preparation and NMR Analysis—Non-Targeted Metabolomics.
The Cell pellet was re-suspended in 1 ml of 80% methanol (cryogenically cold) and incubated at −80° C. for 15 minutes. This suspension was then centrifuged at 13,000×g for 10 minutes at 4° C. The supernatant was collected in an eppendorf tube and the pellet was suspended in 0.25 ml of water. The suspension was vortexed mixed for 1 minute and centrifuged at 13,000×g for 10 minutes at 4° C. The supernatant was collected and mixed with the supernatant collected in the previously step and stream dried under nitrogen. The sample was stored at −80° C. until analyzed. The samples were prepared for NMR experimentation by dissolving in 0.6 ml of 50 mM phosphate buffer (pH 7.2) in 99.8% D2O with 50 μM 3-(tetramethysilane)propionic acid-2,2,3,3-d4 (TMSP). NMR spectra were recorded on a Bruker Avance III-HD 700 MHz spectrometer equipped with a QCI-P cryoprobe and a SampleJet automated sample changer. 1D ^1H spectra were collected using excitation sculpting to remove the solvent signal. A total of 16 k data points with a spectral width of 5482.5 Hz, 8 dummy scans, and 256 scans were used to obtain each spectrum. The data was processed completely in MVAPACK.
An untargeted metabolomics approach using one-dimensional proton nuclear magnetic resonance (1D ^1H NMR) was used to examine the effect of MNF incubation (1 μM, 1 hour) on the intracellular metabolome of PANC-1 cells.

A further assay deals with PANC-1. The assay can be described thus: Proliferation in pancreatic cancer (PancCA) cell lines. Format: cell-based, human. Particulars: including PANC-1.
In assay [3] the test system is MDA-MB-231 breast cancer cells. The assay can be described thus: Intracellular lactate, targeted metabolomics (LC/MS). Particulars: MDA-MB-231, MNF (1 µM), 3 hours. Format: cell-based, human. The protocol:
as §1, with “analyzed. […]” for “analyzed.”
The cells pellets were suspended in 20 μL water, 10 μL of 0.1 mM p-aminohippuric acid as an internal standard was added and the resulting mixture vortex mixed for 1 minute. […] The supernatant was collected and analysed using a system composed of an Agilent Technologies 1100 LC/MSD equipped with a G1322A degasser, G1312A quaternary pump, G1367A autosampler, G1316A column thermostat and G1946D mass spectrometer supplied with electrospray ionization (ESI). […] The compound of interest were monitored in the positive-ion mode for SIM at m/z 162.1 (carnitine), m/z 90.1 (lactate) and m/z 105.1 (3-hydroxybutyrate). The internal standard was monitored at m/z 195.1 (p-aminohippuric acid). […]

The test system of assay [4] is MCF-7 cells. The assay can be described thus: Expression of ABC exporters in MCF-7 cells. Format: cell-based, human. Particulars: incubation with MNF.
Assay [5] has as its system MCF-7 cells. Particulars: by enhancing cytotoxicity of alkylating agents, cisplatin and melphalan; cited from earlier work.

Consider `O=C(O)C(=O)CBr` [3-bromopyruvate], for which the cellular survival result in the assay on PANC-1 cells [1] is listed as “lowers cellular survival”.

Take `COc1ccc(C[C@@H](C)NC[C@H](O)c2cc(O)cc(O)c2)c2ccccc12` [MNF, (R,R′)-4′-methoxy-1-naphthylfenoterol]: in the assay with MDA-MD-231 cells, the “expression of BCRP” value is reported as “reduced” and the “expression of P-gp” value is “reduced”. Besides, in the assay on PANC-1 cells [2], the “relative expression of 3-hydroxybutyrate” value was “increase”, the “signal associated with carnitine” value was “significantly upregulated”, the “signal associated with glycine” value is “significantly upregulated” and the “signal associated with leucine” value is listed as “significantly upregulated”. Moreover, the “signal associated with lysine” value with PANC-1 cells [2] was “significantly upregulated”. Further, the “signal associated with lactate” value in the assay with PANC-1 cells [2] (vs untreated cells) is recorded as “significantly reduced”. In addition, the proliferation entry in the assay with PANC-1 was “significantly reduce proliferation”. The “reduction in the intracellular concentration of lactate” value in assay [3] is on record as roughly 50%. In the assay on MCF-7 cells [4], the “expression of BCRP” value is reported as “significantly reduced”, the “expression of MRP-1” value is given as “significantly reduced” and the “expression of P-gp” value is “significantly reduced”.

Consider `O=C(O)c1nn(Cc2ccc(Cl)cc2Cl)c2ccccc12` [lonidamine], for which, in the assay with MCF-7 cells [5], the cellular survival result was “lowers cellular survival”.
